#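 Results reflect a 48-hour exposure of cells in 96-well plates to compound at five concentrations. GI50 is the concentration that inhibits growth by half. TGI: total growth inhibition.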
# What was measured:
# Assay in all cases: DTP human tumour cell line panel, 48 h
# TK-10 renal = test system: TK-10 renal
# NCI-H522 lung = test system: NCI-H522 lung
# LOX IMVI melanoma = test system: LOX IMVI melanoma
# CAKI-1 renal = test system: CAKI-1 renal
# HOP-92 NSCLC = test system: HOP-92 NSCLC
# SF-268 CNS = test system: SF-268 CNS
# M14 melanoma = test system: M14 melanoma
# HOP-62 NSCLC = test system: HOP-62 NSCLC
# NCI-H23 lung = test system: NCI-H23 lung
# SF-539 CNS = test system: SF-539 CNS
# UO-31 renal = test system: UO-31 renal
# SK-MEL-2 melanoma = test system: SK-MEL-2 melanoma
# IGROV1 ovarian = test system: IGROV1 ovarian
# HCC-2998 colon = test system: HCC-2998 colon
# DU-145 prostate = test system: DU-145 prostate
# U251 CNS = test system: U251 CNS
# MCF7 breast = test system: MCF7 breast
# K-562 leukemia = test system: K-562 leukemia
# SK-MEL-5 melanoma = test system: SK-MEL-5 melanoma
# COLO 205 colon = test system: COLO 205 colon
# MDA-MB-435 = test system: MDA-MB-435
# HCT-116 colon = test system: HCT-116 colon
# A549 NSCLC = test system: A549 NSCLC
# SR leukemia = test system: SR leukemia
# SK-MEL-28 melanoma = test system: SK-MEL-28 melanoma
# NCI-H460 lung = test system: NCI-H460 lung
# CCRF-CEM leukemia = test system: CCRF-CEM leukemia
# BT-549 breast = test system: BT-549 breast
# OVCAR-4 ovarian = test system: OVCAR-4 ovarian
structure (smiles),measurement,setting,value
Cn1ccnc1C(=O)/C=C/c1ccc(CNC(=O)c2ccc(Cl)cc2)cc1,TGI,TK-10 renal,13 µM
same,GI50,NCI-H522 lung,2.47 µM
same,TGI,NCI-H522 lung,4.83 µM
same,GI50,LOX IMVI melanoma,0.962 µM
same,TGI,LOX IMVI melanoma,2.96 µM
same,GI50,CAKI-1 renal,3.34 µM
same,TGI,CAKI-1 renal,> 14.3 µM
same,GI50,HOP-92 NSCLC,3.13 µM
same,TGI,HOP-92 NSCLC,12.9 µM
same,GI50,SF-268 CNS,2.38 µM
same,TGI,SF-268 CNS,6.27 µM
same,GI50,M14 melanoma,2.78 µM
same,TGI,M14 melanoma,7 µM
same,GI50,HOP-62 NSCLC,2.43 µM
same,TGI,HOP-62 NSCLC,5.96 µM
same,GI50,NCI-H23 lung,2.68 µM
same,TGI,NCI-H23 lung,6.47 µM
same,GI50,SF-539 CNS,2.06 µM
same,TGI,SF-539 CNS,4.12 µM
same,GI50,UO-31 renal,1.84 µM
same,TGI,UO-31 renal,3.74 µM
same,GI50,SK-MEL-2 melanoma,3.42 µM
same,TGI,SK-MEL-2 melanoma,10.8 µM
same,GI50,IGROV1 ovarian,2.62 µM
same,TGI,IGROV1 ovarian,7.73 µM
same,GI50,HCC-2998 colon,2.26 µM
same,TGI,HCC-2998 colon,4.5 µM
same,GI50,DU-145 prostate,2.2 µM
same,TGI,DU-145 prostate,4.23 µM
same,GI50,U251 CNS,1.72 µM
same,TGI,U251 CNS,4.08 µM
same,GI50,MCF7 breast,1.75 µM
same,TGI,MCF7 breast,6.3 µM
same,GI50,K-562 leukemia,2.2 µM
same,TGI,K-562 leukemia,> 14.3 µM
same,GI50,SK-MEL-5 melanoma,4.98 µM
same,TGI,SK-MEL-5 melanoma,> 14.3 µM
same,GI50,COLO 205 colon,2.45 µM
same,TGI,COLO 205 colon,6.05 µM
same,GI50,MDA-MB-435,2.73 µM
same,TGI,MDA-MB-435,6.37 µM
same,GI50,HCT-116 colon,2.28 µM
same,TGI,HCT-116 colon,5.05 µM
same,GI50,A549 NSCLC,3.6 µM
same,TGI,A549 NSCLC,> 14.3 µM
same,GI50,SR leukemia,0.626 µM
same,TGI,SR leukemia,> 14.3 µM
same,GI50,SK-MEL-28 melanoma,2.53 µM
same,TGI,SK-MEL-28 melanoma,5.31 µM
same,GI50,NCI-H460 lung,2.61 µM
same,TGI,NCI-H460 lung,6.31 µM
same,GI50,CCRF-CEM leukemia,3.38 µM
same,TGI,CCRF-CEM leukemia,> 14.3 µM
same,GI50,BT-549 breast,2.23 µM
same,TGI,BT-549 breast,4.65 µM
same,GI50,OVCAR-4 ovarian,3.44 µM
same,TGI,OVCAR-4 ovarian,> 14.3 µM
